Results taken from US6472227B1, “Barbiturate assay, tracers, immunogens, antibodies and kit” (Abbott Laboratories, priority 1986, dated 2002).

Legend:
[1] = test system: antibodies raised against an immunogen having the structure shown in FIG. 29; assay: Fluorescence polarization immunoassay cross-reactivity in drug-free normal human urine, tracer of FIG. 30; type: binding, sheep; settings: for % CR / Conc. Found: Conc. Added 1200 ng/mL, tracer FIG. 30; for amount of the test compound found in the resulting human urine: 200 ng/mL added to drug-free urine, secobarbital standard
Procedure: (§1) The antibodies of the present invention are prepared by eliciting a response in sheep to the immunogens described supra. The immunogen is administered to animals or to in vitro cultures of immunocompetent cells by a series of innoculations, in a manner well known to those skilled in the art.
(§2) The tracer formulation presently preferred is 150 nanomolar tracer in: 0.1 molar phosphate buffer at pH 6.2; 5% sodium 5-sulfosalicylate; 0.1% sodium azide; and 0.01% bovine gamma-globulin. The antiserum formulation comprises sheep serum diluted with: 0.1 molar tris buffer at pH 7.5; 0.1% sodium azide; 0.1% bovine gamma-globulin; and 2% ethylene glycol (volume/volume). The dilution buffer comprises: 0.1 molar sodium phosphate at pH 7.5; 0.1% sodium azide; and 0.01% bovine gamma-globulin. The pretreatment solution comprises: 0.01% bovine gamma-globulin; 0.1 molar tris buffer at pH 7.5; 0.1% sodium azide; and 10 mg/mL riboflavin binding protein.
(§3) A minimum of fifty microliters of urine is required. The calibrators, controls, or unknown samples are pipetted directly into the sample well of the TDx® or ADx® sample cartridge. […] The assay procedure from this point is fully automated.
(§4) If a manual assay is being performed, then the sample is mixed with the pretreatment solution in dilution buffer and a background reading is taken. The tracer and antibody are then mixed into the test solution. After incubation, a fluorescence polarization reading is taken.
(§5) The net fluorescence polarization value of each calibrator, control or sample is determined and is printed on the output tape of an instrument such as the Abbott TDx® Analyzer. […] The concentration of each control or sample is read off the stored calibration curve and printed on the output tape.
Cross-reactivity was tested by the method of the present invention for the commonly-used barbiturates. In each case, compounds were assayed on the Abbott Laboratories+ TDx® Clinical Analyzer or the ADx® Drugs of Abuse System after adding a known quantity (200 ng/mL) of the barbiturate test compound to drug-free normal human urine.
(§6) The five columns in Tables 4(a) and 4(b) indicate the same information as is described above for Table 3(a).

[2] = test system: antibodies raised against an immunogen having the structure shown in FIG. 29; assay: Fluorescence polarization immunoassay cross-reactivity, tracer of FIG. 31; type: binding, sheep; settings: Conc. Added 1200 ng/mL; tracer FIG. 31
Procedure: as §1

[3] = Long-term tracer stability: polarization and net intensity after storage (Tables 2(a), 2(b)); type: physicochemical
From the text: The data presented in Tables 2(a) and 2(b) below indicate that a tracer which has an ethylene (—CH═CH—) linkage group between the fluorescein and the ligand component of the tracer remains stable at varied temperatures for a period of at least one and one half years. While a tracer having the chemical structure shown in FIG. 5 was employed to generate the data presented in Table 2(a), a tracer having the chemical structure shown in FIG. 30 was employed to generate the data presented in Table 2(b).

[4] = test system: antibodies raised against an immunogen having the structure shown in FIG. 28; assay: Fluorescence polarization immunoassay cross-reactivity in drug-free normal human urine, tracer of FIG. 5; type: binding, sheep
Procedure: as §1, §2, §3, §4, §5
Cross-reactivity was tested by the method of the present invention for the commonly-used barbiturates. […]
The five columns indicate the following information:
In other words, when 200 ng of secobarbital were added to drug-free normal human urine, approximately 200 ng of secobarbital were detected in the resulting urine sample. Thus, the closer the factor is to 1.0, the more accurate the assay is with respect to the particular test compound analyzed.
The percent cross-reactivity value presented in column five was obtained by the following mathematical formula: [formula]
as §6

[5] = 200 ng/mL added, listed as secobarbital

Compound: C=CCC1(c2ccccc2)C(=O)NC(=O)NC1=O [Alphenal]
- % CR [1]: 94%
- Conc. Found [1]: 1130 ng/mL
- % CR [2]: >167%

Compound: CCC1(c2ccc(N)cc2)CCC(=O)NC1=O (centres unmarked) [Aminoglutethimide]
- amount of the test compound found ([1]; 1 μg/mL added): ND (None detected: Concentration less than the sensitivity of the assay (60 ng/mL))
- amount of the test compound found ([1]; 10 μg/mL added): 117 ng/mL
- factor ([1]; 10 μg/mL added): 0.00117
- percent cross reactivity ([1]; 10 μg/mL added): 1.17%
- amount of the test compound found ([1]; 100 μg/mL added): 412 ng/mL
- factor ([1]; 100 μg/mL added): 0.00041
- percent cross reactivity ([1]; 100 μg/mL added): 0.41%

Compound: C=CCC1(C(C)C)C(=O)NC(=O)NC1=O [Aprobarbital]
- factor which overestimates or underestimates the compound assayed for ([1]; 200 ng/mL added): 0.62
- percent cross reactivity ([1]; 200 ng/mL added): 62%
- amount of the test compound found in the resulting human urine [1]: 123 ng/mL
- % CR [1]: 77%
- Conc. Found [1]: 920 ng/mL
- % CR [2]: 139%
- Conc. Found [2]: 1670 ng/mL

Compound: C=CCC1(CC(=C)Br)C(=O)NC(=O)NC1=O [Brallobarbital]
- factor which overestimates or underestimates the compound assayed for ([1]; 200 ng/mL added): 0.94
- percent cross reactivity ([1]; 200 ng/mL added): 94%
- amount of the test compound found in the resulting human urine [1]: 188 ng/mL
- % CR [1]: 117%
- Conc. Found [1]: 1400 ng/mL
- % CR [2]: 159%
- Conc. Found [2]: 1910 ng/mL

Compound: CCC(C)C1(CC)C(=O)NC(=O)NC1=O (centres unmarked) [Butabarbital]
- factor which overestimates or underestimates the compound assayed for ([1]; 200 ng/mL added): 2.24
- percent cross reactivity ([1]; 200 ng/mL added): 224%
- amount of the test compound found in the resulting human urine [1]: 489 ng/mL
- % CR [1]: >167%
- % CR [2]: >167%

Compound: CCCC(C)C1(C/C=C/C(=O)NCc2c(O)ccc3c2Oc2cc(O)ccc2C32OC(=O)c3ccccc32)C(=O)NC(=O)NC1=O (centres unmarked) [FIG. 5]
- Average Net Intensity ([3]; 1 Year, 2-8 °C): 3161-4615
- Polarization ([3]; 1 Year, 2-8 °C): 204.85
- Average Net Intensity ([3]; 18 Months, 2-8 °C): 3304-4798
- Polarization ([3]; 18 Months, 2-8 °C): 199.29
- Average Net Intensity ([3]; Day 0, 2-8 °C): 3400-5000
- Polarization ([3]; Day 0, 2-8 °C): 209.17
- Average Net Intensity ([3]; Day 1, 2-8 °C): 3290-4733
- Polarization ([3]; Day 1, 2-8 °C): 206.61
- Average Net Intensity ([3]; Day 2, 2-8 °C): 3200-4670
- Polarization ([3]; Day 2, 2-8 °C): 207.07
- Average Net Intensity ([3]; Day 3, 2-8 °C): 3367-4895
- Polarization ([3]; Day 3, 2-8 °C): 208.05
- Average Net Intensity ([3]; Day 3, 37 °C): 3400-4910
- Polarization ([3]; Day 3, 37 °C): 207.60
- Average Net Intensity ([3]; Day 3, 45 °C): 3400-4950
- Polarization ([3]; Day 3, 45 °C): 205.51
- Average Net Intensity ([3]; Day 3, −20 °C): 3395-4965
- Polarization ([3]; Day 3, −20 °C): 207.38
- Average Net Intensity ([3]; Month 2, 2-8 °C): 3282-4777
- Polarization ([3]; Month 2, 2-8 °C): 207.21
- Average Net Intensity ([3]; Month 4, 2-8 °C): 3210-4775
- Polarization ([3]; Month 4, 2-8 °C): 205.59
- Average Net Intensity ([3]; Month 8, 2-8 °C): 3150-4677
- Polarization ([3]; Month 8, 2-8 °C): 206.85
- Average Net Intensity ([3]; Week 1, 2-8 °C): 3400-4900
- Polarization ([3]; Week 1, 2-8 °C): 208.25
- Average Net Intensity ([3]; Week 1, 37 °C): 3500-5000
- Polarization ([3]; Week 1, 37 °C): 202.78
- Average Net Intensity ([3]; Week 1, 45 °C): 3550-5200
- Polarization ([3]; Week 1, 45 °C): 200.11
- Average Net Intensity ([3]; Week 1, −20 °C): 3300-4800
- Polarization ([3]; Week 1, −20 °C): 208.46
- Average Net Intensity ([3]; Week 2, 2-8 °C): 3100-4590
- Polarization ([3]; Week 2, 2-8 °C): 210.41
- Average Net Intensity ([3]; Week 2, −20 °C): 3180-4635
- Polarization ([3]; Week 2, −20 °C): 208.85
- Average Net Intensity ([3]; Week 4, 2-8 °C): 3395-4988
- Polarization ([3]; Week 4, 2-8 °C): 210.35

Compound: CC(C(=O)O)c1ccc(CC(C)(C)O)cc1 (centres unmarked) [OH-Ibuprofen]
- amount of the test compound found ([4]; 1 μg/mL added): ND (None detected: Concentration less than the sensitivity of the assay (60 ng/mL))
- amount of the test compound found ([4]; 10 μg/mL added): ND (None detected: Concentration less than the sensitivity of the assay (60 ng/mL))
- amount of the test compound found ([4]; 100 μg/mL added): ND (None detected: Concentration less than the sensitivity of the assay (60 ng/mL))
- amount of the test compound found ([4]; 1000 μg/mL added): 60 ng/mL
- factor ([4]; 1000 μg/mL added): 0.00006
- percent cross reactivity ([4]; 1000 μg/mL added): 0.006%

Compound: C=CCC1(C(C)CCC)C(=O)NC(=O)NC1=O (centres unmarked) [Secobarbital]
- factor which overestimates or underestimates the compound assayed for ([4]; 200 ng/mL added): 1.00
- percent cross reactivity ([4]; 200 ng/mL added): 100%
- amount of the test compound found in the resulting human urine ([4]; 200 ng/mL added to drug-free urine, secobarbital standard): 200 ng/mL
- factor which overestimates or underestimates the compound assayed for [4, 5]: 1.0
- percent cross reactivity [4, 5]: 100%
- factor which overestimates or underestimates the compound assayed for ([1]; 200 ng/mL added): 1.00
- percent cross reactivity ([1]; 200 ng/mL added): 100%
- amount of the test compound found in the resulting human urine [1]: 200 ng/mL

Compound: Butobarbital
- % CR [1]: 48%
- Conc. Found [1]: 580 ng/mL
